In patent publication US5656600A, “α-ketoamide derivatives as inhibitors of thrombosis” (Corvas International, Inc., priority 1993, dated 1997):
In brackets after ≈: the same amount, converted by molar mass. Residues, ends and D or L forms follow the SMILES beside them. *: point of attachment. Pentanoyl(2-Pr) = CCCC(CCC)C(=O)*

Tests used:
arginyl aminopeptidase = settings: Ocain et al.; cited from earlier work
cytosol aminopeptidase = settings: Ocain et al.; cited from earlier work
[1] = molecular target: microsomal aminopeptidase; settings: Ocain et al.; cited from earlier work
α-thrombin = α-thrombin (Homo sapiens, UniProt P00734); experiment: Amidolytic thrombin assay (inhibition constant Ki); format: biochemical; settings: chromogenic substrate Pefachrome t-PA, HBSA pH 7.5; slow-binding (kon/koff) or Dixon analysis
Method: The ability of the compounds of the present invention to act as inhibitors of thrombin catalytic activity in comparison to Hirulog-1 (compound 25) was assessed by determining their inhibition constant, Ki.
Enzyme activity was determined using the chromogenic substrate Pefachrome t-PA (CH3 SO2 -D-hexahydrotyrosine-glycyl-L-arginine-p-nitroaniline, obtained from Pentapharm Ltd.). The substrate was reconstituted in deionized water prior to use.
Ki values were determined for test compounds using the following methodologies:
The assay was conducted by combining in appropriate wells of a Corning microtiter plate, 50 μL of HBSA, 50 μL of the test compound at a specified concentration diluted in HBSA (or HBSA alone for Vo(uninhibited velocity) measurement), and 50 μL of the chromogenic substrate diluted in HBSA. At time zero, 50 μL of α-thrombin diluted in HBSA, was added to the wells yielding a final concentration of 0.25 nM in a total volume of 200 μL. Velocities of Pefachrome-tPA substrate hydrolysis which occurred over a 40 minute time period was measured by the change in absorbance at 405 nm using a Thermo Max® Kinetic Microplate Reader. […] The linear relationship between kobs and inhibitor concentration is indicative of a competitive, one step mechanism and was used to calculate kon and koff which yielded a value for Ki after taking into consideration the concentration and Km (38.5 μM) of the substrate in the assay.
The initial velocity of Pefachrome t-PA hydrolysis was measured by the change in absorbance at 405 nm using a Thermo Max® Kinetic Microplate Reader over a 2 minute period in which less than 5% of the added substrate was utilized. The relationship between the ratio of the inhibited steady-state velocity (Vs) and the uninhibited velocity (Vo) to the concentration of inhibitor [It ], was analyzed using Equation 1 developed by Morrison , J. F., Biochim. Biophys. Acta, 185:269 (1969) for inhibitors which deplete a significant amount of the total enzyme (Et) over the course of the assay (designated tight binding inhibitors):
Vs/Vo={([Et ]-[It ]-Ki*)+[([It ]+Ki*-[Et ])^2
Ki* was determined by fitting Vs/Vo verses [I] using Equation 1 by non-linear regression analysis.
The best fit of the data for both compounds was to the equation describing competitive inhibition.

thrombin = thrombin (Homo sapiens, UniProt P00734); settings: cited from earlier work

Compound: NC(=O)C(=O)C(N)Cc1ccccc1 (stereo not drawn) [3-Amino-2-oxo-4-phenylbutanoic acid amide]
- Ki (arginyl aminopeptidase): 1500 nM
- Ki (cytosol aminopeptidase): 1000 nM
- Ki [1]: 2500 nM

Compound: CCCC(CCC)C(=O)N[C@@H](CC(=O)O)C(=O)N1CCC[C@H]1C(=O)N[C@@H](CCCNC(=N)N)C(=O)N1CCC[C@H]1C(=O)NCC(=O)NCC(=O)NCC(=O)NCC(=O)N[C@@H](CC(N)=O)C(=O)NCC(=O)N[C@@H](CC(=O)O)C(=O)N[C@@H](Cc1ccccc1)C(=O)N[C@@H](CCC(=O)O)C(=O)N[C@@H](CCC(=O)O)C(=O)N[C@H](C(=O)N1CCC[C@H]1C(=O)N[C@@H](CCC(=O)O)C(=O)N[C@@H](Cc1ccc(O)cc1)C(=O)N[C@@H](CC(C)C)C(=O)O)[C@@H](C)CC [Compound 9] ({Pentanoyl(2-Pr)}-DPRPGGGGNGDFEEIPEYL-OH)
- Ki (α-thrombin): 46.1 nM

Compound: CCCC(CCC)C(=O)N[C@@H](CC(=O)O)C(=O)N1CCC[C@H]1C(=O)N[C@@H](CCCNC(=N)N)C(=O)C(=O)NCC(=O)NCC(=O)NCC(=O)NCC(=O)NCC(=O)N[C@@H](CC(N)=O)C(=O)NCC(=O)N[C@@H](CC(=O)O)C(=O)N[C@@H](Cc1ccccc1)C(=O)N[C@@H](CCC(=O)O)C(=O)N[C@@H](CCC(=O)O)C(=O)N[C@H](C(=O)N1CCC[C@H]1C(=O)N[C@@H](CCC(=O)O)C(=O)N[C@@H](CCC(=O)O)C(=O)N[C@@H](Cc1ccc(O)cc1)C(=O)N[C@@H](CC(C)C)C(=O)O)[C@@H](C)CC [Compound 10]
- Ki (α-thrombin): 0.04 nM

Compound: CCCC(CCC)C(=O)N[C@@H](CC(=O)O)C(=O)N1CCC[C@H]1C(=O)N[C@@H](CCCNC(=N)N)C(=O)C(=O)NCC(=O)NCC(=O)NCC(=O)NCC(=O)NCC(=O)N[C@@H](CCCNC(=N)N)C(=O)NCC(=O)N[C@@H](CC(=O)O)C(=O)N[C@@H](Cc1ccccc1)C(=O)N[C@@H](CCC(=O)O)C(=O)N[C@@H](CCC(=O)O)C(=O)N[C@H](C(=O)N1CCC[C@H]1C(=O)N[C@@H](CCC(=O)O)C(=O)N[C@@H](CCC(=O)O)C(=O)N[C@@H](Cc1ccc(O)cc1)C(=O)N[C@@H](CC(C)C)C(=O)O)[C@@H](C)CC [Compound 11]
- Ki (α-thrombin): 0.0078 nM

Compound: N=C(N)NCCC[C@@H]1NC(=O)[C@@H]2CCCN2C(=O)[C@@H](NC=O)CNC(=O)/C=C/[C@H](Cc2ccc(O)cc2)NC(=O)[C@@H](Cc2ccccc2)NC(=O)C1=O [Cyclotheonamide A]
- IC50 (thrombin), reported (thrombin; Fusetani et al., Hagihara et al.): 0.076 µg/mL (≈ 0.104 µM)
- IC50 (thrombin; Fusetani et al., Hagihara et al., read-out: IC50 (thrombin), reported): 99 nM

Compound: N-acetyl--D--Phe--Pro Arg--[.psi.C(=O)--CH2 ]--CH2 --CH2 --CH2 -(C=O)--Gln--Ser--His--Asn--Asp--Gly--Asp--Phe--Glu--Glu--Ile--Pro--Glu--Glu--Tyr--Leu--Gln
- Ki (thrombin; literature values, read-out: Ki (thrombin), reported): 0.14 nM
